Target: T1, HDAC2 (Homo sapiens, UniProt Q92769)
T1 construct: purchased Proteros
Assay: Reporter displacement assay (HDAC2 Kd)
Assay type: binding
Settings: HDAC2 with C-terminal HIS-Tag 20 nM, 180 nM reporter probe, read after 4 h; Kd by Cheng Prusoff from probe displacement
Procedure: HDAC2 containing a C-terminal HIS-Tag (Proteros) and fluorescently-labeled anti-HIS-antibody are diluted in one vial in assay buffer 50 mM Tris, pH 8.0, 1 mM DTT, 150 mM NaCl, and 0.01% Tween20. Components are pre-incubated for 30 min, then a small volume of reporter probe (Proteros) is added from a highly concentrated stock and incubation is continued for another 30 min. Final concentrations after adding the reporter probe amount to 20 nM HDAC2, 4 nM antibody, and 180 nM probe.
Ten μl/well of pre-formed complex are transferred into 384 well assay plates (Corning). Compounds to be profiled are serially diluted from 1×10^1-5.7×10^−5 mM in DMSO and 60 nl are added to assay plates by pintool transfer (CybiWell, Cybio). Fluorescence intensity signal is read after 4 h in a Pherastar FS (BMG Labtech) at 337/665 nm.
For Kd determination, percent probe displacement values are calculated for each compound concentration and plotted against the compound concentration. IC50-like values (corresponding to 50% probe displacement) are calculated using standard fitting algorithms. Since the reporter probe is used at a concentration reflecting its own Kd value, compound Kd values can be calculated according to the Cheng Prusoff equation.
In the table, “A” indicates a Kd value of less than 0.1 μM; “B” a Kd value of between 0.1 μM and 1.0 μM; “C” a Kd value of greater than 1.0 μM and less than or equal to 10.0 μM; and “D” a Kd value of greater than 10.0 μM.

T1 sequence (Q92769 whole entry): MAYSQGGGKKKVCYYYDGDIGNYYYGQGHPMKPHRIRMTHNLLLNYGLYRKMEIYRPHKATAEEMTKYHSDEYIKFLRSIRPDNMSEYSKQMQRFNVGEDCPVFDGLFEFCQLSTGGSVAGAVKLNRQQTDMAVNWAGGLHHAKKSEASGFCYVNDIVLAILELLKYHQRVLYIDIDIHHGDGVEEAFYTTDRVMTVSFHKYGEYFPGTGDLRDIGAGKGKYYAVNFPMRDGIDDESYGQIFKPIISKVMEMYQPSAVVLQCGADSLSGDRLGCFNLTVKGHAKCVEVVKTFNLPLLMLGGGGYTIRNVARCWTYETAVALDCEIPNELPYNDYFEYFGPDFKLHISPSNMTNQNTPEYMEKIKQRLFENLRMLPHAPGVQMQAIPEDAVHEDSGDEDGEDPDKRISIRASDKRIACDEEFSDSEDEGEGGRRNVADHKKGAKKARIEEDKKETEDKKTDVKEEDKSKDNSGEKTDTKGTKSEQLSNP

| SMILES | Kd [nM] |
| --- | --- |
| CC(=O)Nc1ccc(C(=O)CSc2nc3ccccc3c(=O)[nH]2)cc1 [Compound 124] | 100 to 1000 |
| O=C(CSc1nc(O)cc(=O)[nH]1)c1ccc2[nH]cnc2c1 [Compound 138] | 100 to 1000 |
| CC(=O)Nc1ccc(/C(CSc2nc(O)cc(=O)[nH]2)=N\O)cc1 [Compound 114] | 1000 to 10000 |
| CC(=O)Nc1ccc(C(=O)CSc2nc(O)cc(=O)n2C2CC2)cc1 [Compound 136] | 100 to 1000 |
| Nc1ccc(C(=O)CSc2nc(O)cc(=O)[nH]2)cc1 [Compound 127] | 100 to 1000 |
| CC(=O)Nc1ccc(C(=O)CSc2nc(O)cc(=O)n2-c2ccccc2)cc1 [Compound 132] | 100 to 1000 |
| O=C(CSc1nc(O)c(Cc2ccccc2)c(=O)[nH]1)c1ccccc1 [Compound 111] | 100 to 1000 |
| Nc1ccc(C(=O)CSc2nc(O)c(-c3ccccc3)c(=O)[nH]2)cc1 [Compound 122] | 100 to 1000 |
| CC(C)(C)OC(=O)Nc1ccc(C(=O)CSc2nc(O)cc(=O)[nH]2)cc1 [Compound 135] | 100 to 1000 |
| Cc1ccc(C(=O)CSc2nc(C)cc(=O)[nH]2)cc1 [Compound 104] | 100 to 1000 |
| CCc1ccc(C(=O)CSc2nc(C)cc(=O)[nH]2)cc1 [Compound 105] | 1000 to 10000 |
| Cn1c(SCC(=O)c2ccc(Cl)cc2)nc(O)cc1=O [Compound 143] | 100 to 1000 |
| Cc1ccc(C(=O)CSc2nc(O)c3ccccc3n2)cc1 [Compound 100] | 1000 to 10000 |
| COc1ccc(C(=O)CSc2nc(O)cc(=O)[nH]2)cc1 [Compound 120] | 100 to 1000 |
| CCn1c(SCC(=O)c2ccc(C)cc2)nc(O)cc1=O [Compound 115] | 100 to 1000 |
| CN(C)c1ccc(C(=O)CSc2nc(O)cc(=O)[nH]2)cc1 [Compound 134] | 100 to 1000 |
| CC(C)(C)OC(=O)Nc1ccc(C(=O)CSc2nc(O)c(-c3ccccc3)c(=O)[nH]2)cc1 [Compound 126] | 100 to 1000 |
| Cn1c(SCC(=O)c2ccccc2)nc(O)c(-c2ccccc2)c1=O [Compound 140] | 100 to 1000 |
| Cn1c(SCC(=O)c2cccc(Cl)c2)nc(O)cc1=O [Compound 144] | 100 to 1000 |
| Cc1ccc(C(=O)COc2nc(C)cc(=O)[nH]2)cc1 [Compound 109] | > 10000 |
| O=C(CSc1nc(O)cc(=O)[nH]1)c1ccc(NC(=O)c2ccccc2)cc1 [Compound 130] | 100 to 1000 |
| C=CCn1c(SCC(O)c2ccc(C)cc2)nc(O)cc1=O (stereo not shown) [Compound 108] | 100 to 1000 |
| Cc1ccc(C(=O)CSc2nc(O)cc(=O)n2C)cc1 [Compound 112] | 100 to 1000 |
| CC(=O)N(C)c1ccc(C(=O)CSc2nc(O)cc(=O)[nH]2)cc1 [Compound 133] | < 100 |
| Cn1c(SCC(=O)c2ccc(F)cc2)nc(O)cc1=O [Compound 141] | 100 to 1000 |
| Cc1cccc(C(=O)CSc2nc(O)cc(=O)n2C)c1 [Compound 139] | 100 to 1000 |
| COc1ccc(C(=O)CSc2nc(O)c(-c3ccccc3)c(=O)[nH]2)cc1 [Compound 121] | 100 to 1000 |
| CCn1c(SCC(=O)c2ccc(NC(C)=O)cc2)nc(O)cc1=O [Compound 117] | < 100 |
| Cc1ccc(C(=O)CSc2nc(O)cc(=O)n2C(C)C)cc1 [Compound 113] | 100 to 1000 |
| Cc1ccc(C(=O)CSc2nc(=O)c3ccccc3n2C)cc1 [Compound 145] | 100 to 1000 |

Second part, the compound after the results:

| Kd [nM] | SMILES |
| --- | --- |
| < 100 | CC(=O)Nc1ccc(C(=O)CSc2nc(O)cc(=O)n2C(C)C)cc1 [Compound 118] |
| < 100 | CC(=O)Nc1ccc(C(=O)CSc2nc(O)cc(=O)[nH]2)cc1 [Compound 106] |
| < 100 | Cc1ccc(C(=O)CSc2nc(O)c(-c3ccccc3)c(=O)[nH]2)cc1 [Compound 110] |
| < 100 | O=C(CSc1nc(O)cc(=O)[nH]1)c1ccc(NC(=O)C(F)(F)F)cc1 [Compound 128] |
| < 100 | O=C(CSc1nc(O)c(-c2ccccc2)c(=O)[nH]1)c1ccc(NC(=O)c2ccccc2)cc1 [Compound 125] |
| < 100 | Cc1ccc(C(=O)CSc2nc(O)cc(=O)[nH]2)cc1 [Compound 107] |
| < 100 | C=CCn1c(SCC(=O)c2ccc(C)cc2)nc(O)cc1=O [Compound 101] |
| < 100 | CC(=O)Nc1ccc(C(=O)CSc2nc(O)c(C3CCCC3)c(=O)[nH]2)cc1 [Compound 123] |
| < 100 | Cn1c(SCC(=O)c2cccc(F)c2)nc(O)cc1=O [Compound 142] |
| < 100 | CC(=O)Nc1ccc(C(=O)CSc2nc(O)c(-c3ccccc3)c(=O)[nH]2)cc1 [Compound 119] |
| < 100 | CCc1c(O)nc(SCC(=O)c2ccc(OC)cc2)[nH]c1=O [Compound 103] |
| < 100 | O=C(CSc1nc(O)cc(=O)[nH]1)c1ccc(N2CCCC2=O)cc1 [Compound 137] |
| < 100 | CC(C)C(=O)Nc1ccc(C(=O)CSc2nc(O)cc(=O)[nH]2)cc1 [Compound 129] |
| < 100 | CC(=O)Nc1ccc(C(=O)CSc2nc(O)cc(=O)n2C2CCCC2)cc1 [Compound 131] |
| < 100 | CCn1c(SCC(=O)c2ccccc2)nc(O)cc1=O [Compound 102] |
| < 100 | CC(=O)Nc1ccc(C(=O)CSc2nc(O)cc(=O)n2C)cc1 [Compound 116] |
